Where no end group is shown, it is not given here.

Assay [1] concerns primary ovine myoblasts. Description: Ovine myoblast proliferation assay. In kind it is cell-based. As to conditions: 1, 5 or 10 μg/ml; 48 hours. As for the experimental part: Human skeletal muscle myoblasts (Cambrex, USA) or primary ovine myoblasts were grown in Dulbecco's Modified Eagle Medium containing 20% FBS, 10% Horse serum and 0.5% chicken embryo extract according to the standard techniques. The myoblast proliferation assay was carried out in uncoated 96-well microtitre plates. Cell cultures were seeded at 2000 cells/well. Following a 24-hour attachment period, test media supplemented with 5% FCS containing either buffer as a control or different myostatin antagonists (300, 310 or 320) were added at 1, 5 and 10 μg/ml and cells were incubated for a further 144 hour period (for human cells) or 48 hours (for ovine cells). After the incubation period, proliferation was assessed using methylene blue photometric endpoint assay as previously described (Thomas et al, 2000).

Assay [2] has as its system myostatin. Description: Myoblast chemotaxis assay, recovery of myostatin chemo-inhibition by antagonists. In kind it is cell-based. As for the experimental part:
Primary myoblasts were cultured from the hind limb muscle of young (4 to 6 week old) or old (24 month old) mice, according to the published protocols (Allen et al., 1997; Partridge, 1997). Briefly, muscles were minced, and digested in 0.2% collagenase type 1A for 90 min. Cultures were enriched for myoblasts by pre-plating on uncoated plates for 3 hours. Myoblast cultures were maintained in growth media (GM) supplemented with 20% fetal calf serum (FCS), 10% HS and 1% CEE on 10% Matrigel coated plates, at 37° C./5% CO2. The extent of culture purity was assessed by flow cytometry analysis of MyoD expression after 48 hours in culture. Cells were harvested using trypsin, suspended at a concentration of 10^6 cells/200 μl and fixed overnight in 5 ml 70% ethanol at −20° C. Staining was performed for 30 min at room temperature using rabbit polyclonal anti-MyoD, 1:200 (Santa Cruz), followed by Alexa fluor 488 anti-rabbit conjugate, 1:500 (Molecular Probes). Analysis was carried out in duplicate with 10^4 cell events collected in each assay. Debris was excluded by gating on forward and side scatter profiles. Cells were analyzed by FACScan (Becton Dickinson). Macrophages were isolated by a peritoneal lavage technique and/or derived from bone marrow Zymosan-activated mouse serum (ZAMS) was prepared according to the published protocol (Colditz and Movat, 1984).
For the chemotaxis assay of myoblasts, a first assay was carried out on myoblasts from 2 year old mice as follows. DMEM containing 2% horse serum (HS), 5% chicken embryo extract (CEE) plus dialysis buffer was used as positive control. […] Plain DMEM was used as negative control. On a 24-well plate, the bottom wells were filled with test or control media. Seventy-five thousand cells were added to the top wells containing polyethylene terephthalate (PET) 0.8 μm membranes coated with 1% Matrigel. The plate was incubated for 7 h at 37° C., 5% CO2. […] The membrane was then fixed, stained in Gill's hematoxylin and wet mounted on slides. Migrated cells were counted on four representative fields per membrane and the average number plotted. The results are shown in FIG. 6 (myoblast migration from old mice) and FIG. 7 (myoblast migration from young mice).

For assay [3], the system named is primary myoblasts. Description: Migration of primary myoblasts isolated from mice treated in vivo. The conditions noted are these: 6 μg/g BW SC three times a week for six weeks; three chemo-attractant media; vs saline. The text has this:
In a second myoblast migration assay, primary myoblasts isolated form hind limb of saline treated (control) and myostatin antagonist 300 treated mice (as described in example 4 below). Three chemo-attractant media were used: DMEM containing 2% horse serum (HS) and 5% chicken embryo extract (CEE) (optimal chemo-attractant); DMEM containing only 5% CEE or DMEM containing only 2% HS (both suboptimal chemo-attractants). Plain DMEM was used as negative control. On a 24-well plate, the bottom wells were filled with test or control media. Seventy-five thousand cells were added to the top wells. The plate was incubated for 7h at 37° C., 5% CO2. […] The membrane was then fixed, stained in Gill's hematoxylin and wet mounted on slides. Migrated cells were counted on four representative fields per membrane and the average number plotted.
An animal trial was conducted to assess the effects of myostatin antagonist 300 in improving muscle function. Sixteen month old mice were divided into two groups of ten. While the control group received saline subcutaneous (SC) injections, the other group received myostatin antagonist 300 SC at 6 μg/gram of BW three times a week for six weeks. The functional improvement of sarcopenic muscle was assessed by measuring grip strength of mice at the end of trial. Grip strength was measured in Newtons.

Assay [4] concerns C57B mice injected with Dexamethasone. Briefly: In vivo cachexia trial (Dexamethasone-induced). Here is the method: A study of chronic cachexia was designed whereby C57B mice, 4 weeks of age, were injected with the glucocorticoid drug Dexamethasone daily at a concentration of 1 mg/kg body weight. Three treatment groups were designed: 5 mice receiving daily injections of saline, 5 mice receiving daily injections of Dexamethasone and 5 mice receiving daily injections of Dexamethasone plus 300 antagonist at a concentration of 6μg/g body weight. Body weight of the mice was recorded daily and monitored closely for signs of cachexia. Food and water consumption was recorded to ensure that loss in body weight was not due to a loss of appetite or thirst. Body weights, fat-pad weights, and MyoD and Pax7 expression were assessed.

Assay [5] has as its system p-FoxO1. Briefly: In vitro cancer cachexia trial: p-FoxO1 Western blot in C2C12 myotubes. As to conditions: with myostatin 6 μg/mL; tested at 30, 60, 90 or 120 μg/mL; 24 hours. In kind it is cell-based, murine. Here is the method:
C2C12 cells were differentiated for 72 hours in differentiation media (DMEM+2% HS). Following this period of differentiation the myotubes were tested with recombinant myostatin at 6 μg/mL or a combination of both myostatin and 300 recombinant protein at 30, 60, 90 or 120 μg/mL for further 24 hours to determine if 300 can rescue myostatin-mediated muscle wasting in vitro. Gene expression changes of intermediate signalling molecules critical in myostatin-mediated cachexia were analysed. Therefore, protein was isolated from cells and Western blot analysis was performed to measure protein expression levels for p-FoxO1, which we have shown to be a critical signalling intermediates in Myostatin-mediated cachexia (McFarlane et al 2006).
(In western blotting, separated proteins are transferred to a membrane and probed.)

In the case of “myostatin antagonist 300: recombinant peptide, amino acids 267-300 of bovine myostatin, with N terminal and C terminal tag (SEQ ID NO: 6) (DFGLDCDEHSTESRCCRYPLTVDFEAFGWDWIIA; cysteine pairing not given here; also: N- and C-terminal tags; listed as Homo sapiens)”, the “proliferation capacity of ovine myoblasts compared to control” value in assay [1] is “significantly enhanced”. In assay [2] (myoblasts from old (2 year old) mice, antagonist added at 5 μg/ml, myostatin 2.5 μg/ml), the “rescue of chemo-inhibiting effects of myostatin on myoblast migration” value is on record as “rescued to levels similar to those observed in the control”. The “rescue of chemo-inhibiting effects of myostatin on myoblast migration” value in assay [2] (myoblasts from young (1 month old) mice) is “rescued the migration of myostatin cells to control levels”. Moreover, the “migration rates of myoblasts isolated from treated mice” value in assay [3] is “significantly increased migration rates”. Besides, the “Pax7 expression (Western blot)” value in assay [4] (Dexamethasone and 300, right gastrocnemius, p<0.01) is given as “significant up-regulation (rescue)”. Moreover, in assay [4] (Dexamethasone and 300, right gastrocnemius, p<0.05), the “MyoD expression (Western blot)” value is reported as “significant up-regulation (rescue)”. Besides, in assay [4] (Dexamethasone plus 300), the “increase in left inguinal fat-pad weight” value is 33.2%, the “increase in left retroperitoneal fat-pad weight” value came to 23.3%, the “increase in right inguinal fat-pad weight” value stood at 39% and the “increase in right retroperitoneal fat-pad weight” value came to 39.2%. For the same substance, the “average body weight loss” value in assay [4] (co-treatment Dexamethasone 1 mg/kg and 300 6 μg/g daily) was “smaller average body weight loss”. The “concentration giving maximal rescue of p-FoxO1 expression” value in assay [5] stood at 90 µg/mL.

The record behind these values is patent publication US8309068B2, “Isolated polypeptides and methods of improving muscle strength” (Myostin Therapeutics Pty Ltd., priority 2006, dated 2012).
